Reference: PubChem BioAssay AID1845205 (Molecular Pharmacology Branch, DTP, NCI, 2023)

Tested on: MPNST multicellular tumor spheroids, viability % test/control
Experiment: Anticancer human tumor MPNST cell line growth inhibition;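 further: spheroids exposed to agents for seven days after three days of growth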;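 on viability, T/C: luminescence signal used as surrogate for viable cell amount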
Settings: for IC50: curve of first compound; for viability, T/C: stronger effect = lower value
Procedure, shortened: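 Complex tumor spheroids combined malignant cells with endothelial cells and mesenchymal stem cells. DNA-damaging drugs and DNA repair inhibitors were tested alone and in combination, at half-log dilutions down from clinical Cmax (top 10 microM if Cmax unknown), 0.25% DMSO final.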

[1] = second compound 1 µM, first compound 0.0316 µM
[2] = second compound 1 µM, first compound 0.1 µM
[3] = second compound 1 µM, first compound 0.316 µM
[4] = second compound 1 µM, first compound 1 µM
[5] = second compound 1 µM, first compound 3.16 µM
[6] = second compound 1 µM, first compound 10 µM
[7] = second compound 3.16 µM, first compound 0.0316 µM
[8] = second compound 3.16 µM, first compound 0.1 µM
[9] = second compound 3.16 µM, first compound 0.316 µM
[10] = second compound 3.16 µM, first compound 1 µM
[11] = second compound 3.16 µM, first compound 3.16 µM
[12] = second compound 3.16 µM, first compound 10 µM
[13] = second compound 10 µM, first compound 0.0316 µM
[14] = second compound 10 µM, first compound 0.1 µM
[15] = second compound 10 µM, first compound 0.316 µM
[16] = second compound 10 µM, first compound 1 µM
[17] = second compound 10 µM, first compound 3.16 µM
[18] = second compound 10 µM, first compound 10 µM
[19] = second compound 31.6 µM, first compound 0.0316 µM
[20] = second compound 31.6 µM, first compound 0.1 µM
[21] = second compound 31.6 µM, first compound 0.316 µM
[22] = second compound 31.6 µM, first compound 1 µM
[23] = second compound 31.6 µM, first compound 3.16 µM
[24] = second compound 31.6 µM, first compound 10 µM
[25] = second compound 100 µM, first compound 0.0316 µM
[26] = second compound 100 µM, first compound 0.1 µM
[27] = second compound 100 µM, first compound 0.316 µM
[28] = second compound 100 µM, first compound 1 µM
[29] = second compound 100 µM, first compound 3.16 µM
[30] = second compound 100 µM, first compound 10 µM

| SMILES | IC50 (second compound 1 µM) [nM] | IC50 (second compound 3.16 µM) [nM] | IC50 (second compound 10 µM) [nM] | IC50 (second compound 31.6 µM) [nM] | IC50 (second compound 100 µM) [nM] | viability, T/C [1] [%] | viability, T/C [2] [%] | viability, T/C [3] [%] | viability, T/C [4] [%] | viability, T/C [5] [%] | viability, T/C [6] [%] | viability, T/C [7] [%] | viability, T/C [8] [%] | viability, T/C [9] [%] | viability, T/C [10] [%] | viability, T/C [11] [%] | viability, T/C [12] [%] | viability, T/C [13] [%] | viability, T/C [14] [%] | viability, T/C [15] [%] | other results |
| --- | --- | --- | --- | --- | --- | --- | --- | --- | --- | --- | --- | --- | --- | --- | --- | --- | --- | --- | --- | --- | --- |
| CC1COCCN1c1cc(-c2ccnn2C)c2ccnc(-c3ccn[nH]3)c2n1 (stereo not given) + Cn1nnc2c(C(N)=O)ncn2c1=O | 198 | 238 | 142 | 386 | 182 | 62 | 55.8 | 45.8 | 39.7 | 34.1 | 35.3 | 62.2 | 56.2 | 47.9 | 39.5 | 31 | 31.9 | 64.2 | 52.2 | 45.2 | viability, T/C [16]: 38.2%; viability, T/C [17]: 35.9%; viability, T/C [18]: 34.4%; viability, T/C [19]: 61.8%; viability, T/C [20]: 57.1%; viability, T/C [21]: 52.5%; viability, T/C [22]: 41.2%; viability, T/C [23]: 32.2%; viability, T/C [24]: 31.5%; viability, T/C [25]: 63.6%; viability, T/C [26]: 54.4%; viability, T/C [27]: 46.1%; viability, T/C [28]: 37.1%; viability, T/C [29]: 30.2%; viability, T/C [30]: 31.8% |
| COc1cc(C)[nH]c(=O)c1CN1CCc2c(Cl)cc(C(OC)C3COC3)c(Cl)c2C1=O (stereo not given) + Cn1nnc2c(C(N)=O)ncn2c1=O | > 10000 | > 10000 | > 10000 | > 10000 | > 10000 | 89.9 | 80.4 | 78.7 | 88.5 | 94.2 | 107 | 87.7 | 84.4 | 122 | 97.4 | 150 | 95.9 | 81.5 | 106 | 101 | viability, T/C [16]: 97.8%; viability, T/C [17]: 99.9%; viability, T/C [18]: 92.8%; viability, T/C [19]: 79.1%; viability, T/C [20]: 74%; viability, T/C [21]: 92.5%; viability, T/C [22]: 81.7%; viability, T/C [23]: 103%; viability, T/C [24]: 82.7%; viability, T/C [25]: 84%; viability, T/C [26]: 82.7%; viability, T/C [27]: 70.7%; viability, T/C [28]: 80.6%; viability, T/C [29]: 80.7%; viability, T/C [30]: 86.5% |
| COc1ccc([C@@H](O)c2cc(-c3ncnc4cc(N5CCOCC5)ccc34)c(F)cc2Cl)nn1 + Cn1nnc2c(C(N)=O)ncn2c1=O | 1650 | 1510 | 1820 | 2070 | 1580 | 93.3 | 90.2 | 73.2 | 59 | 39.5 | 23 | 76.4 | 99.1 | 80 | 57.7 | 35.9 | 23.4 | 86.8 | 74.9 | 73 | viability, T/C [16]: 65.5%; viability, T/C [17]: 36.6%; viability, T/C [18]: 24.2%; viability, T/C [19]: 81.2%; viability, T/C [20]: 72.8%; viability, T/C [21]: 75.2%; viability, T/C [22]: 66.5%; viability, T/C [23]: 40.4%; viability, T/C [24]: 26.4%; viability, T/C [25]: 76.3%; viability, T/C [26]: 90.8%; viability, T/C [27]: 68.4%; viability, T/C [28]: 57.7%; viability, T/C [29]: 39.7%; viability, T/C [30]: 25.6% |
